Laboratory results from ChEMBL document CHEMBL4732190, “Identification of Potent and Long-Acting Single-Chain Peptide Mimetics of Human Relaxin-2 for Cardiovascular Diseases” (J Med Chem, 2021).
*1 amine or outer side, *2 acyl side, *3 side chain or, on linkers, in order; H or OH if unused. Where a SMILES comes first, the peptide text is derived from it. [ ]: non-standard residue; d: D form. The star is where a group is joined. X1 = CCCCCCCCCCCCCCCCC(=O)[C@H](CCC(N)=O)N*; β2hAla(2S) = C[C@@H](CN[*:1])C(=O)[*:2]; hLys = NCCCCC[C@H](N)C(=O)O; Nle = CCCC[C@H](N)C(=O)O; AEEA = NCCOCCOCC(=O)O

Assays:
[1] = target: T1, Relaxin receptor 1 (Homo sapiens, UniProt Q9HBX9); experiment: Agonist activity at RXFP1 endogenously expressed in human OVCAR-5 cells assessed as increase in IBMX-induced cAMP accumulation pretreated with IBMX for 40 mins followed by compound addition and measured after 30 mins in presence of 2 % HSA by HTRF assay; format: functional, cell-based
T1 sequence (Q9HBX9 whole entry): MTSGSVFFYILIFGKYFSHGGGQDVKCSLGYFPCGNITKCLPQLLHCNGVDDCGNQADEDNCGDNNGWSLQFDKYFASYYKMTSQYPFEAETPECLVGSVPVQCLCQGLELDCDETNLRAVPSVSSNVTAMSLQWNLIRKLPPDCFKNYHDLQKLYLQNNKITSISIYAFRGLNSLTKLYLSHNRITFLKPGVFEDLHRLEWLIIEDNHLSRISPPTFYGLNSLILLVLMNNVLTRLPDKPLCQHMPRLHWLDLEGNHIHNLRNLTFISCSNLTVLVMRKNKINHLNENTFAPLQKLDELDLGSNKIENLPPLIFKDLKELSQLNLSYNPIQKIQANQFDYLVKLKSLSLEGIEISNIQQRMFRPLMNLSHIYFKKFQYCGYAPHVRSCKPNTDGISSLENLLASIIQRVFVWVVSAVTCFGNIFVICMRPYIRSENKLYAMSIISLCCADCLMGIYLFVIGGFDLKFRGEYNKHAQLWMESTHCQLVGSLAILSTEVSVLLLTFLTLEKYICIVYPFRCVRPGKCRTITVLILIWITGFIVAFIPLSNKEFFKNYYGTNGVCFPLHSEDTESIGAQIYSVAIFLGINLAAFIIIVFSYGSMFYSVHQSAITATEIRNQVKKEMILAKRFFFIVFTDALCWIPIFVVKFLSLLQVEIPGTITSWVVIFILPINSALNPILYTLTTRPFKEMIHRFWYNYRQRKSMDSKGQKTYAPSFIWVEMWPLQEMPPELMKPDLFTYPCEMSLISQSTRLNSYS

[2] = Stability in human blood assessed as parent compound at 5 uM remaining after 4 hrs; format: ADME, tissue-based; conditions: read-out: Stabilty
[3] = Half life in Sprague-Dawley rat at 1 mg/kg, iv measured upto 72 hrs by LC-HRMS analysis; format: ADME, organism-based; conditions: in vivo
[4] = target: T2, Relaxin receptor 1 (Homo sapiens) (UniProt Q9HBX9); experiment: Agonist activity at RXFP1 endogenously expressed in human OVCAR-5 cells assessed as increase in IBMX-induced cAMP accumulation pretreated with IBMX for 40 mins followed by compound addition and measured after 30 mins in presence of 2 % HSA by HTRF assay relative to control; format: functional, cell-based; conditions: filed as agonist
T2 sequence (whole entry): T1 sequence (Q9HBX9 whole entry)

[5] = target: T2, Relaxin receptor 1 (Homo sapiens); experiment: Selectivity ratio of EC50 for agonist activity at RXFP1 endogenously expressed in human OVCAR-5 cells in presence of 2 % HSA to EC50 for agonist activity at RXFP1 endogenously expressed in human OVCAR-5 cells in absence of HSA; format: cell-based
[6] = Stability in rat blood assessed as parent compound at 5 uM remaining after 4 hrs; format: ADME, tissue-based; conditions: read-out: Stabilty
[7] = target: T2, Relaxin receptor 1 (Homo sapiens); experiment: Agonist activity at RXFP1 endogenously expressed in human OVCAR-5 cells assessed as increase in IBMX-induced cAMP accumulation pretreated with IBMX for 40 mins followed by compound addition and measured after 30 mins by HTRF assay relative to relaxin; format: functional, cell-based; conditions: filed as agonist
[8] = Bioavailability in Sprague-Dawley rat at 3 mg/kg, sc measured upto 72 hrs by LC-HRMS analysis; format: ADME, organism-based; conditions: in vivo
[9] = target: T1, Relaxin receptor 1; experiment: Agonist activity at RXFP1 endogenously expressed in human OVCAR-5 cells assessed as increase in IBMX-induced cAMP accumulation pretreated with IBMX for 40 mins followed by compound addition and measured after 30 mins by HTRF assay; format: functional, cell-based

| EC50 [1] [nM] | remaining at 4 h, 5 µM [2] [%] | half-life [3] [h] | Emax [4] [%] | Ratio EC50 [5] | remaining at 4 h, 5 µM [6] [%] | Emax [7] [%] | bioavailability [8] [%] | EC50 [9] [nM] | SMILES |
| --- | --- | --- | --- | --- | --- | --- | --- | --- | --- |
| 87 | 87 | 5.7 | 96 | 87 | 79 | 80 | 47 | 1 | CCCCCCCCCCCCCCCCC(=O)[C@H](CCC(N)=O)NC(=O)[C@H](CCC(=O)O)NC(=O)[C@H](CCC(=O)O)NC(=O)[C@H](CCCCN)NC(=O)COCCOCCNC(=O)COCCOCCNC(=O)COCCOCCNC(=O)[C@H](CCCCCNC(C)=O)NC(=O)[C@H](CCCCN)NC(=O)[C@H](CCCCN)NC(=O)[C@H](CCCNC(=N)N)NC(=O)[C@@H](C)CNC(=O)[C@H](CO)NC(=O)[C@H](Cc1c[nH]c2ccccc12)NC(=O)[C@@H](NC(=O)[C@H](CO)NC(=O)[C@H](CCCCCNC(C)=O)NC(=O)[C@H](CCCCN)NC(=O)[C@H](CCCC)NC(=O)[C@H](CCSC)NC(=O)CNC(=O)[C@H](CCC(=O)O)NC(=O)[C@@H](C)CNC(=O)[C@@H](C)CNC(=O)[C@@H](NC(=O)[C@H](CCCCCNC(C)=O)NC(=O)[C@H](CCCCN)NC(=O)[C@H](C)NC(=O)[C@H](CCCNC(=N)N)NC(=O)[C@@H](NC(=O)[C@H](CCCCN)NC(=O)[C@H](CCC(=O)O)NC(=O)[C@H](CCCNC(=N)N)NC(=O)[C@H](CCC(=O)O)NC(=O)CNC(=O)[C@H](CCC(=O)O)NC(=O)[C@H](CC(C)C)NC(C)=O)C(C)C)[C@@H](C)CC)[C@@H](C)O (Ac-LEGEREKVRAK[hLys](Ac)I[β2hAla(2S)][β2hAla(2S)]EGM[Nle]K[hLys](Ac)STWS[β2hAla(2S)]RKK[hLys](Ac)[AEEA][AEEA][AEEA]KEE-X1) |
| > 3000 | 91 | 4.3 |  | > 170 | 93 | 97 |  | 17.6 | CCCCCCCCCCCCCCCCC(=O)[C@H](CCC(N)=O)NC(=O)[C@H](CCC(=O)O)NC(=O)[C@H](CCC(=O)O)NC(=O)[C@H](CCCCN)NC(=O)[C@H](CCCCN)NC(=O)[C@H](CCCNC(=N)N)NC(=O)[C@@H](C)CNC(=O)[C@H](CO)NC(=O)[C@H](Cc1c[nH]c2ccccc12)NC(=O)[C@@H](NC(=O)[C@H](CO)NC(=O)[C@H](CCSC)NC(=O)CNC(=O)[C@H](CCC(=O)O)NC(=O)[C@@H](C)CNC(=O)[C@@H](C)CNC(=O)[C@@H](NC(=O)[C@H](CCC(N)=O)NC(=O)[C@H](C)NC(=O)[C@H](CCCNC(=N)N)NC(=O)[C@@H](NC(=O)[C@H](CCCCN)NC(=O)[C@H](CCC(=O)O)NC(=O)[C@H](CCCNC(=N)N)NC(=O)[C@H](CCC(=O)O)NC(=O)CNC(=O)[C@H](CCC(=O)O)NC(=O)[C@H](CC(C)C)NC(C)=O)C(C)C)[C@@H](C)CC)[C@@H](C)O (Ac-LEGEREKVRAQI[β2hAla(2S)][β2hAla(2S)]EGMSTWS[β2hAla(2S)]RKKEE-X1) |
